Assay results: article PMC11012124, “Synthesis of Novel Triazine-Based Chalcones and 8,9-dihydro-7H-pyrimido[4,5-b][1,4]diazepines as Potential Leads in the Search of Anticancer, Antibacterial and Antifungal Agents” (International Journal of Molecular Sciences, 2024)

Assays:
Assay in all cases: cells
[1] = tested on: LOX IMVI; settings: Homo sapiens, 48 h; for CC50: read-out: LC50, LOX IMVI, 48 h
[2] = tested on: 786-0; settings: Homo sapiens, 786-0, 48 h; for CC50: read-out: LC50
[3] = tested on: MCF7; settings: Homo sapiens, MCF7, 48 h; for CC50: read-out: LC50
[4] = tested on: NCI-H226; settings: Homo sapiens, NCI-H226, 48 h; for CC50: read-out: LC50
[5] = tested on: OVCAR-4; settings: Homo sapiens, OVCAR-4, 48 h; for CC50: read-out: LC50
[6] = tested on: SK-MEL-2; settings: Homo sapiens, SK-MEL-2, 48 h; for CC50: read-out: LC50
[7] = tested on: UACC-257; settings: Homo sapiens, UACC-257, 48 h; for CC50: read-out: LC50
[8] = tested on: SK-MEL-5; settings: Homo sapiens, SK-MEL-5, 48 h; for CC50: read-out: LC50
[9] = tested on: SF-268; settings: Homo sapiens, SF-268, 48 h; for CC50: read-out: LC50
[10] = tested on: IGROV1; settings: Homo sapiens, IGROV-1, 48 h; for CC50: read-out: LC50
[11] = tested on: SF-295; settings: Homo sapiens, SF-295, 48 h; for CC50: read-out: LC50
[12] = tested on: K-562; settings: Homo sapiens, K562, 48 h; for GI50: K-562, 48 h; for CC50: read-out: LC50
[13] = tested on: MDA-MB-435; settings: Homo sapiens, MDA-MB-435, 48 h; for CC50: read-out: LC50
[14] = tested on: NCI/ADR-RES; settings: Homo sapiens, 48 h; for CC50: read-out: LC50
[15] = tested on: CCRF-CEM; settings: Homo sapiens, 48 h; for CC50: read-out: LC50
[16] = tested on: SR; settings: Homo sapiens, 48 h; for CC50: read-out: LC50
[17] = tested on: SN12C; settings: Homo sapiens, 48 h; for CC50: read-out: LC50
[18] = tested on: A498; settings: Homo sapiens, A498, 48 h; for CC50: read-out: LC50
[19] = tested on: NCI-H460; settings: Homo sapiens, NCI-H460, 48 h; for CC50: read-out: LC50
[20] = tested on: HOP-92; settings: Homo sapiens, HOP-92, 48 h; for CC50: read-out: LC50
[21] = tested on: TK-10; settings: Homo sapiens, TK-10, 48 h; for CC50: read-out: LC50
[22] = tested on: HL-60(TB); settings: Homo sapiens, HL-60, 48 h; for CC50: read-out: LC50
[23] = tested on: OVCAR-5; settings: Homo sapiens, OVCAR-5, 48 h; for CC50: read-out: LC50
[24] = tested on: OVCAR-3; settings: Homo sapiens, OVCAR-3, 48 h
[25] = tested on: NCI-H23; settings: Homo sapiens, NCI-H23, 48 h

Compound: Nc1nc(N)c2c(n1)NC(c1ccccc1)CC(c1ccc(Nc3nc(NCCO)nc(Nc4ccc(Cl)cc4)n3)cc1)=N2 (stereo not drawn) [33a]
- GI50 [1]: 1.54 µM
- CC50 [1]: 5.66 µM
- GI50 [2]: 1.63 µM
- CC50 [2]: 5.8 µM
- GI50 [3]: 1.51 µM
- CC50 [3]: 6.1 µM
- GI50 [4]: 11.5 µM
- CC50 [4]: 85 µM
- GI50 [5]: 1.72 µM
- CC50 [5]: 8.19 µM
- GI50 [6]: 1.38 µM
- CC50 [6]: 5.6 µM
- GI50 [7]: 1.9 µM
- CC50 [7]: 6.43 µM
- GI50 [8]: 1.42 µM
- CC50 [8]: 5.21 µM
- GI50 [9]: 1.87 µM
- GI50 [10]: 1.56 µM
- CC50 [10]: 6.29 µM
- GI50 [11]: 1.57 µM
- CC50 [11]: 5.63 µM
- GI50 [12]: 1.01 µM
- CC50 [12]: > 100 µM
- GI50 [13]: 1.74 µM
- CC50 [13]: 5.78 µM
- GI50 [14]: 4.33 µM
- CC50 [14]: > 100 µM
- GI50 [15]: 0.95 µM
- CC50 [15]: > 100 µM
- GI50 [16]: 0.55 µM
- GI50 [17]: 1.74 µM
- CC50 [17]: 7.2 µM
- GI50 [18]: 1.54 µM
- CC50 [18]: 5.96 µM
- GI50 [19]: 1.85 µM
- CC50 [19]: 6.51 µM
- GI50 [20]: 1.42 µM
- CC50 [20]: 6.74 µM
- GI50 [21]: 2.09 µM
- CC50 [21]: 7.16 µM
- GI50 [22]: 0.32 µM
- CC50 [22]: > 100 µM
- GI50 [23]: 1.94 µM
- CC50 [23]: 7.25 µM

Compound: Cc1ccc(C2CC(c3ccc(Nc4nc(NCCO)nc(Nc5ccc(Cl)cc5)n4)cc3)=Nc3c(N)nc(N)nc3N2)cc1 (stereo not drawn) [33b]
- GI50 [1]: 1.65 µM
- CC50 [1]: 5.69 µM
- GI50 [2]: 1.64 µM
- CC50 [2]: 5.7 µM
- GI50 [3]: 1.46 µM
- CC50 [3]: 6.22 µM
- GI50 [4]: 16.7 µM
- CC50 [4]: 88.2 µM
- GI50 [5]: 1.85 µM
- CC50 [5]: 7.14 µM
- GI50 [6]: 1.81 µM
- CC50 [6]: 6.4 µM
- GI50 [7]: 1.84 µM
- CC50 [7]: 6.54 µM
- GI50 [8]: 1.56 µM
- CC50 [8]: 5.43 µM
- GI50 [9]: 1.81 µM
- CC50 [9]: 7.35 µM
- GI50 [10]: 1.65 µM
- CC50 [10]: 5.98 µM
- GI50 [11]: 1.63 µM
- CC50 [11]: 5.63 µM
- GI50 [12]: 1.34 µM
- CC50 [12]: 24.9 µM
- GI50 [13]: 1.73 µM
- CC50 [13]: 5.68 µM
- GI50 [14]: 1.73 µM
- CC50 [14]: 6.97 µM
- GI50 [15]: 1.67 µM
- CC50 [15]: > 100 µM
- GI50 [16]: 1.68 µM
- CC50 [16]: > 100 µM
- GI50 [17]: 1.79 µM
- CC50 [17]: 6.39 µM
- GI50 [18]: 3.85 µM
- CC50 [18]: 42 µM
- GI50 [19]: 1.8 µM
- CC50 [19]: 6.41 µM
- GI50 [20]: 1.3 µM
- CC50 [20]: 6.3 µM
- GI50 [21]: 1.9 µM
- CC50 [21]: 6.02 µM
- GI50 [22]: 1.71 µM
- CC50 [22]: > 100 µM
- GI50 [23]: 1.62 µM
- CC50 [23]: 5.59 µM

Compound: CN(C)c1nc(NCCNS(=O)(=O)c2ccc(C(=O)/C=C/c3ccc(F)cc3)cc2)nc(N2CCOCC2)n1 [23f]
- GI50 [1]: 1.63 µM
- CC50 [1]: 6.19 µM
- GI50 [2]: 14.5 µM
- CC50 [2]: 57 µM
- GI50 [3]: 2.99 µM
- CC50 [3]: 46.7 µM
- GI50 [4]: 12.3 µM
- CC50 [4]: 64.7 µM
- GI50 [5]: 11.9 µM
- CC50 [5]: 51.1 µM
- GI50 [6]: 13.7 µM
- CC50 [6]: 52.7 µM
- GI50 [7]: 15.5 µM
- CC50 [7]: 54.9 µM
- GI50 [8]: 15.7 µM
- CC50 [8]: 54.4 µM
- GI50 [9]: 15 µM
- CC50 [9]: 94 µM
- GI50 [10]: 2.27 µM
- CC50 [10]: 25.4 µM
- GI50 [11]: 11.3 µM
- CC50 [11]: 50.1 µM
- GI50 [12]: 3.7 µM
- CC50 [12]: > 100 µM
- GI50 [13]: 11.6 µM
- CC50 [13]: 51.9 µM
- GI50 [24]: 14.6 µM
- CC50 ([24]; read-out: LC50): 55.7 µM
- GI50 [25]: 14.6 µM
- CC50 ([25]; read-out: LC50): 54.3 µM
- GI50 [15]: 6.58 µM
- CC50 [15]: > 100 µM
- GI50 [16]: 3.45 µM
- CC50 [16]: > 100 µM
- GI50 [17]: 12 µM
- CC50 [17]: 50 µM
- GI50 [18]: 11.9 µM
- CC50 [18]: 49.9 µM
- GI50 [19]: 15.7 µM
- CC50 [19]: 69.4 µM
- GI50 [20]: 12.7 µM
- CC50 [20]: 63.5 µM
- GI50 [21]: 15.3 µM
- CC50 [21]: 53.8 µM
- GI50 [22]: 14.7 µM
- CC50 [22]: > 100 µM
- GI50 [23]: 13.6 µM
- CC50 [23]: 52.6 µM

Compound: Nc1nc(N)c2c(n1)NC(c1ccc(Cl)cc1)CC(c1ccc(Nc3nc(NCCO)nc(Nc4ccc(Cl)cc4)n3)cc1)=N2 (stereo not drawn) [33e]
- GI50 [1]: 1.45 µM
- CC50 [1]: 5.63 µM
- GI50 [2]: 1.55 µM
- CC50 [2]: 5.96 µM
- GI50 [3]: 1.2 µM
- CC50 [3]: 5.47 µM
- GI50 [4]: 6.47 µM
- CC50 [4]: > 100 µM
- GI50 [5]: 1.96 µM
- CC50 [5]: 32.7 µM
- GI50 [6]: 1.45 µM
- CC50 [6]: 5.53 µM
- GI50 [7]: 1.91 µM
- CC50 [7]: 7.32 µM
- GI50 [8]: 1.48 µM
- CC50 [8]: 5.3 µM
- GI50 [9]: 4.14 µM
- CC50 [9]: > 100 µM
- GI50 [10]: 1.71 µM
- CC50 [10]: 7.46 µM
- GI50 [11]: 1.73 µM
- CC50 [11]: 7.76 µM
- GI50 [12]: 0.71 µM
- CC50 [12]: > 100 µM
- GI50 [13]: 1.63 µM
- CC50 [13]: 6.2 µM
- GI50 [14]: 4.24 µM
- CC50 [14]: > 100 µM
- GI50 [15]: 1.14 µM
- CC50 [15]: > 100 µM
- GI50 [16]: 0.91 µM
- CC50 [16]: > 100 µM
- GI50 [17]: 1.95 µM
- GI50 [18]: 5.9 µM
- CC50 [18]: 44.5 µM
- GI50 [19]: 1.72 µM
- CC50 [19]: 6.42 µM
- GI50 [20]: 1.29 µM
- CC50 [20]: 7.54 µM
- GI50 [21]: 10.6 µM
- CC50 [21]: 60.4 µM
- GI50 [22]: 1.15 µM
- CC50 [22]: > 100 µM
- GI50 [23]: 4.48 µM
- CC50 [23]: 74 µM
